Laboratory results taken from the OPERA property sets (Mansouri et al. 2018).

Conditions: not given

SMILES | melting point [°C] | ready biodegradability | boiling point [°C] | log10 Koc (L/kg) | log10 vapour pressure (mmHg) | log10 Henry constant (atm·m³/mol) | log10 Koa
O=Cc1c(O)ccc2ccccc12 | 83 | readily biodegradable | – | – | – | – | –
O[C@@H]1CCc2ccccc21 | 54.8 | – | 220 | – | – | – | –
Ic1ccccc1 | -31.3 | – | 188 | 3.1 | 0.0253 | – | –
CN(C)C(=O)Nc1ccccc1 | 134 | readily biodegradable | – | 1.4 | -4.43 | – | –
O=Cc1cccnc1 | – | – | – | – | – | -6.82 | –
C=COC(=O)CC | -80 | readily biodegradable | 91.2 | – | – | – | –
CCCC(=O)OC(=O)CCC | -75 | – | 200 | – | -0.548 | – | –
CCCN1C[C@H](CSC)C[C@@H]2c3cccc4[nH]cc(c34)C[C@H]21 | 208 | – | – | – | – | – | –
CCCCCCOCCCCCC | – | – | 223 | – | -1.34 | – | –
CCc1cccc2c1CCCC2 | -44.5 | – | 245 | – | – | – | –
O=C(O)CCCCCl | 18 | – | 230 | – | – | – | –
Clc1ccc(-c2c(Cl)cccc2Cl)c(Cl)c1 | – | – | – | – | – | -3.85 | –
O=C1OC(=O)C2CCCCC12 (stereo unspecified) | – | not readily biodegradable | – | – | – | – | –
C=CC(=C)C | -146 | not readily biodegradable | 34 | – | 2.74 | – | 2.06
COc1ccc(C(=CC(=O)N2CCOCC2)c2ccc(Cl)cc2)cc1OC | 148 | – | – | – | -8.13 | – | –
CC1CCc2ccccc2O1 (stereo unspecified) | – | – | 224 | – | – | – | –
CCc1cccc(Cl)c1 | -55 | – | 184 | – | – | – | –
FC(F)(F)C(F)(Cl)C(F)(Cl)C(F)(F)F (stereo unspecified) | -68 | – | 63 | – | – | – | –
CC(C)CCCCCCO | 64.5 | – | 206 | – | – | – | –
C#C[C@]1(O)CC[C@H]2[C@@H]3CCC4=Cc5oncc5C[C@]4(C)[C@H]3CC[C@@]21C | 226 | – | – | – | – | – | –
CC(C)CCC[C@@H](C)[C@H]1CC[C@H]2[C@@H]3CC=C4C[C@@H](OC(=O)Cc5ccc(N(CCCl)CCCl)cc5)CC[C@]4(C)[C@H]3CC[C@]12C | 90 | – | – | – | – | – | –
CCOC(=O)COC | – | – | 142 | – | – | – | –
Cc1c(Cl)ccc(OC(C)C(O)=Nc2ccccc2)c1Cl (stereo unspecified) | 146 | – | – | – | – | – | –
CCOC(=O)C(F)(F)C(F)(F)C(F)(F)F | – | – | 95 | – | – | – | –
ClCCCCCCCCCl | – | not readily biodegradable | 241 | – | – | – | –
c1ccc(CCc2ccccc2)cc1 | 52.5 | readily biodegradable | 284 | – | -2.14 | – | –

SMILES | melting point [°C] | ready biodegradability | boiling point [°C] | log10 Koc (L/kg) | log10 vapour pressure (mmHg) | log10 Henry constant (atm·m³/mol) | log10 Koa
O=C(O)CCCCCCCCCCF | 36 | – | – | – | – | – | –
O=C1CCCCCCCN1 | 78 | – | – | – | – | – | –
OCc1c2ccccc2cc2ccccc12 | – | – | – | 3.61 | – | – | –
Pc1ccccc1 | – | – | 160 | – | – | – | –
CCCCC(CC)COC(=O)CCC (stereo unspecified) | – | readily biodegradable | – | – | – | – | –
COCCN(C(=O)CCl)c1c(C)cccc1C | 46 | – | 320 | – | -4.95 | – | –
COc1ccc(C(=O)c2ccccc2C(=O)O)cc1 | 146 | – | – | – | – | – | –
CCOc1ccc(NS(=O)(=O)c2ccc(N)cc2)nn1 | 183 | – | – | – | – | – | –
c1ccc2c(c1)CCCO2 | 215 | – | – | – | – | – | –
Cc1cccc2c1CCCC2 | -23 | – | 234 | – | – | – | –
CCOC(=O)c1ccccc1OC | – | – | 261 | – | – | – | –
Fc1ccccc1-c1ccccc1 | 73.5 | – | 248 | – | – | – | –
CC1(C)C(=O)[C@@]2(C)CC[C@@H]1C2 | – | – | 193 | – | – | – | –
C1CO1 | -112 | readily biodegradable | 10.6 | – | 3.12 | -3.83 | –
OC(Cc1ccccc1)(c1ccccc1)c1ccccc1 | 89.5 | – | – | – | – | – | –
Clc1ccc(C(Cl)(Cl)Cl)c(Cl)c1 | – | not readily biodegradable | – | – | – | – | –
c1ccc(Cc2cccc3ccccc23)cc1 | 59.5 | – | 350 | – | – | – | –
Clc1ccc(CSC(Cn2cncn2)=Nc2ccc(Cl)cc2Cl)cc1 | 90 | – | – | – | -9.2 | – | –
CC1=C2[C@H]3OC(=O)[C@@H](C)[C@@H]3CC[C@@]2(C)C=CC1=O | 175 | – | – | – | – | – | –
Cc1ccc(O)cc1[N+](=O)[O-] | – | not readily biodegradable | – | – | – | – | –
CCN(C)C(=O)COC(=O)c1ccccc1 | 20 | – | – | – | – | – | –
C=C(C)c1ccccc1 | -23.2 | not readily biodegradable | 165 | – | 0.279 | – | –
CCC(C)C(C(=O)OCC[N+](C)(CC)CC)c1ccccc1.[Br-] (stereo unspecified) | 102 | – | – | – | – | – | –
N#Cc1ccc(-c2ccc(C#N)cc2)cc1 | 238 | – | – | – | – | – | –
CC(=O)CC(c1ccc(Cl)cc1)c1c(O)c2ccccc2oc1=O (stereo unspecified) | 169 | – | – | – | – | – | –
O=S(=O)(O)CCCN1CCOCC1 | 284 | – | – | – | – | – | –

SMILES | melting point [°C] | ready biodegradability | boiling point [°C] | log10 Koc (L/kg) | log10 vapour pressure (mmHg) | log10 Henry constant (atm·m³/mol) | log10 Koa
CC(C)c1ccc(C=O)cc1 | – | readily biodegradable | 236 | – | – | – | –
COc1ccc(N)cc1 | 57.2 | readily biodegradable | 243 | 1.93 | -1.52 | -7.18 | –
CCO | -114 | readily biodegradable | 78.2 | – | 1.77 | -5.3 | –
CNC(=O)CSP(=S)(OC)OC | 52 | not readily biodegradable | – | 1.2 | -4.73 | – | –
CCN(CC)CCOC(=O)C(O)(c1ccccc1)c1ccccc1.Cl | 178 | – | – | – | – | – | –
CC(=O)C=Cc1ccco1 | 39.5 | – | – | – | – | – | –
ClC(Cl)=C(Cl)C(Cl)(Cl)Cl | -72.9 | – | 210 | – | -0.613 | – | –
N#CCN(CC#N)CCN(CC#N)CC#N | 128 | – | – | – | – | – | –
Cc1ccc(O)c([N+](=O)[O-])c1 | 36.5 | not readily biodegradable | – | – | – | -4.83 | –
CCCCCCCCc1ccc(Nc2ccc(CCCCCCCC)cc2)cc1 | – | not readily biodegradable | – | – | – | – | –
CCOC(=O)C(C(C)=O)C(=O)OCC | – | – | 232 | – | – | – | –
CC(F)F | -117 | – | -24.9 | – | 3.66 | -1.69 | –
Cc1cc(O)ccc1Br | 63.5 | – | – | – | – | – | –
O=C1CCC(=O)N1Br | 174 | – | – | – | – | – | –
FC(F)(F)CC(F)(F)F | -94.2 | – | -1.1 | – | – | – | –
CCOC(=O)CCl | -21 | – | 144 | – | 0.687 | – | –
Cc1cc(C)c2ccccc2c1C | 55.5 | – | – | – | – | – | –
CC1CO1 (stereo unspecified) | -112 | readily biodegradable | 35 | – | 2.73 | – | –
O=[N+]([O-])c1ccc2ncccc2c1 | 154 | – | – | – | – | – | –
CN(C)c1ccc(C(=N)c2ccc(N(C)C)cc2)cc1 | 136 | not readily biodegradable | 330 | 3.31 | – | – | –
Nc1cccc([N+](=O)[O-])c1N | 158 | – | – | – | – | – | –
O=C(O)CCBr | 62.5 | – | – | – | – | – | –
CCOc1ccc2nc3cc(N)ccc3c(N)c2c1 | 226 | – | – | – | – | – | –
CC(C)=CCC/C(C)=C/C=C/C(C)=C/C=C/C(C)=C/C=C/C=C(C)/C=C/C=C(C)/C=C/C1=C(C)CCCC1(C)C | 178 | – | – | – | – | – | –
COc1ccc([N+](=O)[O-])c(N)c1 | 131 | – | – | – | – | – | –
Cc1cccc(Br)c1C | – | – | 214 | – | – | – | –

SMILES | melting point [°C] | ready biodegradability | boiling point [°C] | log10 Koc (L/kg) | log10 vapour pressure (mmHg) | log10 Henry constant (atm·m³/mol) | log10 Koa
CCc1cccc(CC)c1N(COC)C(=O)CCl | 40 | not readily biodegradable | – | 2.28 | – | -8.08 | –
O=S(=O)(O)CCCNC1CCCCC1 | 302 | – | – | – | – | – | –
NCC1CCCC(CN)C1 (stereo unspecified) | – | not readily biodegradable | 220 | – | – | – | –
CC(C)(C)OOC(=O)c1ccccc1 | 8 | not readily biodegradable | – | – | – | – | –
CC(=O)[C@@]1(C)CC[C@H]2[C@@H]3CCC4=CC(=O)CCC4=C3CC[C@@]21C | 106 | – | – | – | – | – | –
C=COC(C)=O | -93.2 | readily biodegradable | 72.5 | – | 1.96 | – | –
COCCl | -104 | readily biodegradable | 59.5 | – | 1.48 | – | –
CCC(=O)O | -20.7 | readily biodegradable | 141 | – | 0.548 | -6.35 | –
NNC(=O)c1ccccc1O | 148 | – | – | – | – | – | –
O=c1cc(-c2ccccc2)oc2cc(O)cc(O)c12 | 286 | – | – | – | – | – | –
O=Cc1ccc(C=O)cc1 | 117 | readily biodegradable | 246 | – | – | – | –
S=C1SCCS1 | 35 | – | 307 | – | – | – | –
Cc1c(Cl)cc(Cl)c(O)c1Cl | 46 | – | 265 | – | – | – | –
Clc1cccc(Oc2ccc(Cl)cc2Cl)c1 | – | – | – | – | -3.74 | – | –
N#CC(F)(Cl)Cl | -110 | – | 33 | – | – | – | –
CCCCCCCCCC=O | -5 | readily biodegradable | 208 | – | -0.987 | -2.74 | –
Cc1cc(Br)ccc1[N+](=O)[O-] | 78 | – | – | – | – | – | –
CCCCCCCCC(=O)N(CCO)CCO | – | readily biodegradable | – | – | – | – | –
CCC(C)CC | -163 | – | 63.2 | – | 2.28 | – | –
Cc1cccc(C(C)C)c1 | -63.7 | not readily biodegradable | 175 | – | 0.235 | – | –
O=C(CCl)OCCOC(=O)CCl | 45.5 | – | – | – | – | – | –
C#CCN1C(=O)COc2cc(F)c(N3C(=O)C4=C(CCCC4)C3=O)cc21 | 202 | – | – | – | – | – | –
O=c1cccco1 | 8.5 | – | 208 | – | – | – | –
COc1ccccn1 | – | – | 142 | – | – | – | –
O=C(O)C=Cc1cccc(Br)c1 | 178 | – | – | – | – | – | –

Same assay, conditions: fish

SMILES | log10 biotransformation half-life (days) | log10 BCF
Clc1ccc(-c2c(Cl)cccc2Cl)c(Cl)c1 | 2.47 | –
C=CC(=C)C | -0.61 | 1.3
Cc1ccc(O)cc1[N+](=O)[O-] | -0.8 | 1
C=C(C)c1ccccc1 | -0.71 | 1.8
CNC(=O)CSP(=S)(OC)OC | -1.01 | 0.2
Cc1ccc(O)c([N+](=O)[O-])c1 | – | 0.95
CCc1cccc(CC)c1N(COC)C(=O)CCl | -1.1 | 1.12
Cc1cccc(C(C)C)c1 | 0.07 | 2.73
